Tests used:
NS3/NS4 complexes = NS3/NS4 complexes (Hepatitis C virus genotype 1a, UniProt P27958); experiment: NS3/NS4 inhibition assay (IC50); type: biochemical; conditions: NS3/NS4 activity; 23° C., 25 μM NS4A peptide
How it was run: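 First, NS3 and NS4 are complexed; test compounds are then titrated against the complex at room temperature (23° C.) in Tris-HCl buffer, pH 7.5, supplemented with glycerol (15%), LDAO (0.6 mM), DTT (10 mM) and NS4A peptide (25 μM) to give IC50. Separately, replicon cells give EC50.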

hepatitis C replicon = hepatitis C replicon EC50 assay; type: cell-based; conditions: Hepatitis C virus; hepatitis C replicon; read-out: EC50
How it was run: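 Replicon EC50 determined per a referenced patent protocol; assays run at ambient temperature (23° C.) in 50 mM Tris-HCl pH 7.5 with 15% glycerol, 0.6 mM LDAO, 25 μM NS4A peptide and 10 mM DTT.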

Chain of NS3/NS4 complexes (P27958 1027-1657, one chain of several): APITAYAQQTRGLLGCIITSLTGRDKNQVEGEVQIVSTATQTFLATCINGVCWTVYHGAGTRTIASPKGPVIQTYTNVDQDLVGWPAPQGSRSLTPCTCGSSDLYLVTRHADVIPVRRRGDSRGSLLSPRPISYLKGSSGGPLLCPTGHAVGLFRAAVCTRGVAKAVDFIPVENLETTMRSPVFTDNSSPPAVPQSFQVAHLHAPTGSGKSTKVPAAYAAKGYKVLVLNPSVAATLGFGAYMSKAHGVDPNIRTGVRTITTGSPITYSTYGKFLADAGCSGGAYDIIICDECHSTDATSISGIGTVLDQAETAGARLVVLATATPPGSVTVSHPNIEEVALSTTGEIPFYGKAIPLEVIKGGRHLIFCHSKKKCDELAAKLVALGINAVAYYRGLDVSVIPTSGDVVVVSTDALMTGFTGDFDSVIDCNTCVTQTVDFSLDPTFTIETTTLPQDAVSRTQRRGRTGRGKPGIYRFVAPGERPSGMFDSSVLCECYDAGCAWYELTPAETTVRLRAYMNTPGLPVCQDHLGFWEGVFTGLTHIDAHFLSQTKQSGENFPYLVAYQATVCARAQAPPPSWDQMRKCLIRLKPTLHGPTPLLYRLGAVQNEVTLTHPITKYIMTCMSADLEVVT

| Compound | IC50 (NS3/NS4 complexes) | EC50 (hepatitis C replicon) |
| --- | --- | --- |
| Cc1nc2cc(O[C@@H]3C[C@H]4C(=O)N[C@]5(C(=O)NS(=O)(=O)N(C)C)C[C@H]5/C=C\CCCCC[C@H](NC(=O)OC(C)(C)C)C(=O)N4C3)ccc2s1 [Compound 1253] | < 10 nM | > 100 nM |
| COc1ccc2c(O[C@@H]3C[C@H]4C(=O)N[C@]5(C(=O)NS(=O)(=O)C6(C)CC6)C[C@H]5/C=C\CCCCC[C@H](Nc5ccc(F)c(F)c5)C(=O)N4C3)cc(-c3nc(C(C)C)cs3)nc2c1C [Compound 1001] | < 10 nM | < 10 nM |
| CC(C)n1c(O[C@@H]2C[C@H]3C(=O)N[C@]4(C(=O)NS(=O)(=O)N(C)C)C[C@H]4/C=C\CCCCC[C@H](NC(=O)OC(C)(C)C)C(=O)N3C2)nc2c(C(=O)O)cccc21 [Compound 276] | < 10 nM | > 100 nM |
| CCNC(=O)c1cccc2c1nc(O[C@@H]1C[C@H]3C(=O)N[C@]4(C(=O)NS(=O)(=O)C5(C)CC5)C[C@H]4/C=C\CCCCC[C@H](Nc4ccccc4)C(=O)N3C1)n2C(C)C [Compound 271] | < 10 nM | 10 to 100 nM |
| COc1ccc(-c2nn([C@@H]3C[C@H]4C(=O)N[C@]5(C(=O)NS(=O)(=O)C6(C)CC6)C[C@H]5/C=C\CCCCC[C@H](Nc5ccccc5)C(=O)N4C3)nc2-c2nccs2)cc1 [Compound 1506] | < 10 nM | 10 to 100 nM |
| CC(C)n1cnc2cnc(O[C@@H]3C[C@H]4C(=O)N[C@]5(C(=O)NS(=O)(=O)C6CC6)C[C@H]5/C=C\CCCCC[C@H](NC(=O)OC(C)(C)C)C(=O)N4C3)nc21 [Compound 505] | < 10 nM | > 100 nM |
| Cc1ccc(-c2csc(-c3cccc4c3nc(O[C@@H]3C[C@H]5C(=O)N[C@]6(C(=O)NS(=O)(=O)C7(C)CC7)C[C@H]6/C=C\CCCCC[C@H](NC(=O)OC(C)(C)C)C(=O)N5C3)n4C(C)C)n2)cc1 [Compound 1709] | < 10 nM | 10 to 100 nM |
| COc1ccc2c(O[C@@H]3C[C@H]4C(=O)N[C@]5(C(=O)NS(=O)(=O)C6(C)CC6)C[C@H]5/C=C\CCCCC[C@H](Nc5cccc(C(=O)N6CCN(C(=O)C7CC7)CC6)c5)C(=O)N4C3)cc(-c3nc(C(C)C)cs3)nc2c1C [Compound 119] | < 10 nM | < 10 nM |
| CC(C)n1c(O[C@@H]2C[C@H]3C(=O)N[C@]4(C(=O)NS(=O)(=O)C5(C)CC5)C[C@H]4/C=C\CCCCC[C@H](NC(=O)N4CCCC4)C(=O)N3C2)nc2c(-c3nc(-c4ccccc4)cs3)cccc21 [Compound 1732] | < 10 nM | < 10 nM |
| COc1cccc2c1nc(O[C@@H]1C[C@H]3C(=O)N[C@]4(C(=O)NS(=O)(=O)N(C)C)C[C@H]4/C=C\CCCCC[C@H](NC(=O)OC(C)(C)C)C(=O)N3C1)n2C(C)C [Compound 286] | < 10 nM | < 10 nM |
| COc1ccc2c(O[C@@H]3C[C@H]4C(=O)N[C@]5(C(=O)NS(=O)(=O)C6(C)CC6)C[C@H]5/C=C\CCCCC[C@H](Nc5cccc(C(=O)N6CCN(C(c7ccccc7)c7ccccc7)CC6)c5)C(=O)N4C3)cc(-c3nc(C(C)C)cs3)nc2c1C [Compound 114] | < 10 nM | < 10 nM |
| CC1(S(=O)(=O)NC(=O)[C@@]23C[C@H]2/C=C\CCCCC[C@H](Nc2ccccc2)C(=O)N2C[C@H](n4nc(Br)c(-c5ccccc5)n4)C[C@H]2C(=O)N3)CC1 [Compound 1505] | < 10 nM | > 100 nM |
| CC(C)n1c(O[C@@H]2C[C@H]3C(=O)N[C@]4(C(=O)NS(=O)(=O)N(C)C)C[C@H]4/C=C\CCCCC[C@H](NC(=O)OC(C)(C)C)C(=O)N3C2)nc2ncccc21 [Compound 1780] | < 10 nM | 10 to 100 nM |
| C=Cc1cccc2c1nc(O[C@@H]1C[C@H]3C(=O)N[C@]4(C(=O)NS(=O)(=O)C5CC5)C[C@H]4/C=C\CCCCC[C@H](NC(=O)OC(C)(C)C)C(=O)N3C1)n2C(C)C [Compound 225] | < 10 nM | < 10 nM |
| CNC(=O)c1cccc2c1nc(O[C@@H]1C[C@H]3C(=O)N[C@]4(C(=O)NS(=O)(=O)N(C)C)C[C@H]4/C=C\CCCCC[C@H](NC(=O)OC(C)(C)C)C(=O)N3C1)n2C(C)C [Compound 278] | < 10 nM | 10 to 100 nM |
| COc1ccc2c(O[C@@H]3C[C@H]4C(=O)N[C@]5(C(=O)NS(=O)(=O)C6(C)CC6)C[C@H]5/C=C\CCCCC[C@H](Nc5ccc(F)c(OC(F)(F)F)c5)C(=O)N4C3)cc(-c3nc(C(C)C)cs3)nc2c1C (single isomer, unassigned) [Compound 601] | < 10 nM | < 10 nM |
| CCCc1nc(-c2cccc3c2nc(O[C@@H]2C[C@H]4C(=O)N[C@]5(C(=O)NS(=O)(=O)C6(C)CC6)C[C@H]5/C=C\CCCCC[C@H](NC(=O)OC(C)(C)C)C(=O)N4C2)n3C(C)C)sc1C [Compound 1210] | < 10 nM | < 10 nM |
| CC(C)n1c(O[C@@H]2C[C@H]3C(=O)N[C@]4(C(=O)NS(=O)(=O)C5(C)CC5)C[C@H]4/C=C\CCCCC[C@H](NC(=O)OC4CCCC4)C(=O)N3C2)nc2c(-c3nc(-c4ccccc4)cs3)cccc21 [Compound 1730] | < 10 nM | < 10 nM |
| CC(C)n1c(O[C@@H]2C[C@H]3C(=O)N[C@]4(C(=O)NS(=O)(=O)C5(C)CC5)C[C@H]4/C=C\CCCCC[C@H](NC(=O)OC(C)(C)C)C(=O)N3C2)nc2c(-c3nc(-c4ccc(-c5ccccc5)cc4)cs3)cccc21 [Compound 1716] | < 10 nM | 10 to 100 nM |
| COc1ccc2c(O[C@@H]3C[C@H]4C(=O)N[C@]5(C(=O)NS(=O)(=O)C6(C)CC6)C[C@H]5/C=C\CCCCC[C@H](Nc5cccc(C(=O)N6CCN(c7ccccn7)CC6)c5)C(=O)N4C3)cc(-c3nc(C(C)C)cs3)nc2c1C [Compound 126] | < 10 nM | < 10 nM |
| CC(C)n1c(O[C@@H]2C[C@H]3C(=O)N[C@]4(C(=O)NS(=O)(=O)C5(C)CC5)C[C@H]4/C=C\CCCCC[C@H](NC(=O)OC(C)(C)C)C(=O)N3C2)nc2ncccc21 [Compound 1779] | < 10 nM | 10 to 100 nM |
| CCOC(=O)c1nc2ccccc2nc1O[C@@H]1C[C@H]2C(=O)N[C@]3(C(=O)NS(=O)(=O)N(C)C)C[C@H]3/C=C\CCCCC[C@H](NC(=O)OC(C)(C)C)C(=O)N2C1 [Compound 309] | < 10 nM | 10 to 100 nM |
| CC(C)n1c(O[C@@H]2C[C@H]3C(=O)N[C@]4(C(=O)NS(=O)(=O)C5(C)CC5)C[C@H]4/C=C\CCCCC[C@H](NC(=O)OC(C)(C)C)C(=O)N3C2)nc2c(-c3nc(-c4ccccc4Cl)cs3)cccc21 [Compound 1714] | < 10 nM | 10 to 100 nM |
| COc1ccc2c(O[C@@H]3C[C@H]4C(=O)N[C@]5(C(=O)NS(=O)(=O)C6(C)CC6)C[C@H]5/C=C\CCCCC[C@H](Nc5cccc(C(=O)N6CCOCC6)c5)C(=O)N4C3)cc(-c3nc(C(C)C)cs3)nc2c1C [Compound 105] | < 10 nM | < 10 nM |
| CC(C)c1cccc2c1nc(O[C@@H]1C[C@H]3C(=O)N[C@]4(C(=O)NS(=O)(=O)C5(C)CC5)C[C@H]4/C=C\CCCCC[C@H](Nc4ccccc4)C(=O)N3C1)n2C(C)C [Compound 201] | < 10 nM | 10 to 100 nM |
| CC(C)n1c(O[C@@H]2C[C@H]3C(=O)N[C@]4(C(=O)NS(=O)(=O)C5(C)CC5)C[C@H]4/C=C\CCCCC[C@H](NC(=O)OC(C)(C)C)C(=O)N3C2)nc2c(-c3nc(Cc4ccccc4)cs3)cccc21 [Compound 1767] | < 10 nM | < 10 nM |
| COc1ccc2c(O[C@@H]3C[C@H]4C(=O)N[C@]5(C(=O)NS(=O)(=O)C6(C)CC6)C[C@H]5/C=C\CCCCC[C@H](Nc5cccc(C(=O)N6CCN(c7cccc(C(F)(F)F)c7)CC6)c5)C(=O)N4C3)cc(-c3nc(C(C)C)cs3)nc2c1C [Compound 124] | < 10 nM | 10 to 100 nM |
